Our source for the mutagenic call values is PubChem BioAssay AID1259407 (Chemical Carcinogenesis Research Information System (CCRIS), 2018).

In the series the test system is CCRIS mutagenicity, Ames/micronucleus/aberration tests. The series can be described thus: CCRIS mutagenicity studies.
[1] abbreviates: Test System: AMES SALMONELLA TYPHIMURIUM, Strain/Indicator: TA98, Metabolic Activation: NONE, Method: PREINCUBATION
Setting [2] is: Test System: AMES SALMONELLA TYPHIMURIUM, Strain/Indicator: TA100, Metabolic Activation: NONE, Method: PREINCUBATION
The mark [3] stands for this setting: Test System: AMES SALMONELLA TYPHIMURIUM, Strain/Indicator: TA1535, Metabolic Activation: NONE, Method: PREINCUBATION
Where [4] appears, read: Test System: AMES SALMONELLA TYPHIMURIUM, Strain/Indicator: TA98, Metabolic Activation: NONE, Method: STANDARD PLATE.
Setting [5] is: Test System: AMES SALMONELLA TYPHIMURIUM, Strain/Indicator: TA100, Metabolic Activation: NONE, Method: STANDARD PLATE.
Setting [6] is: Test System: AMES SALMONELLA TYPHIMURIUM, Strain/Indicator: TA98, Metabolic Activation: HAMSTER, LIVER, S-9, AROCLOR 1254 (10%), Method: PREINCUBATION
[7] abbreviates: Test System: AMES SALMONELLA TYPHIMURIUM, Strain/Indicator: TA98, Metabolic Activation: RAT, LIVER, S-9, AROCLOR 1254 (10%), Method: PREINCUBATION
Setting [8] is: Test System: AMES SALMONELLA TYPHIMURIUM, Strain/Indicator: TA100, Metabolic Activation: HAMSTER, LIVER, S-9, AROCLOR 1254 (10%), Method: PREINCUBATION
Where [9] appears, read: Test System: AMES SALMONELLA TYPHIMURIUM, Strain/Indicator: TA100, Metabolic Activation: RAT, LIVER, S-9, AROCLOR 1254 (10%), Method: PREINCUBATION
Where [10] appears, read: Test System: AMES SALMONELLA TYPHIMURIUM, Strain/Indicator: TA1535, Metabolic Activation: HAMSTER, LIVER, S-9, AROCLOR 1254 (10%), Method: PREINCUBATION
Setting [11] is: Test System: AMES SALMONELLA TYPHIMURIUM, Strain/Indicator: TA1535, Metabolic Activation: RAT, LIVER, S-9, AROCLOR 1254 (10%), Method: PREINCUBATION
Where [12] appears, read: Test System: AMES SALMONELLA TYPHIMURIUM, Strain/Indicator: TA1537, Metabolic Activation: HAMSTER, LIVER, S-9, AROCLOR 1254 (10%), Method: PREINCUBATION
Setting [13] is: Test System: AMES SALMONELLA TYPHIMURIUM, Strain/Indicator: TA1537, Metabolic Activation: NONE, Method: PREINCUBATION
Setting [14] is: Test System: AMES SALMONELLA TYPHIMURIUM, Strain/Indicator: TA1537, Metabolic Activation: RAT, LIVER, S-9, AROCLOR 1254 (10%), Method: PREINCUBATION

Activity calls are given as the source filed them. No rule for the calls is given here.

Consider `CC(=O)OO`, for which the mutagenic call is “inactive; negative” (Test System: AMES SALMONELLA TYPHIMURIUM, Strain/Indicator: TA97, Metabolic Activation: HAMSTER, LIVER, S-9, AROCLOR 1254 (10 OR 30%), Method: PREINCUBATION); “inactive; negative” (Test System: AMES SALMONELLA TYPHIMURIUM, Strain/Indicator: TA97, Metabolic Activation: NONE, Method: PREINCUBATION); “inactive; negative” (Test System: AMES SALMONELLA TYPHIMURIUM, Strain/Indicator: TA97, Metabolic Activation: RAT, LIVER, S-9, AROCLOR 1254 (10 OR 30%), Method: PREINCUBATION); “inactive; negative” (Test System: AMES SALMONELLA TYPHIMURIUM, Strain/Indicator: TA98, Metabolic Activation: HAMSTER, LIVER, S-9, AROCLOR 1254 (10 OR 30%), Method: PREINCUBATION); “inactive; negative” under setting [1]; “inactive; negative” (Test System: AMES SALMONELLA TYPHIMURIUM, Strain/Indicator: TA98, Metabolic Activation: RAT, LIVER, S-9, AROCLOR 1254 (10 OR 30%), Method: PREINCUBATION). Further, the mutagenic call (Test System: AMES SALMONELLA TYPHIMURIUM, Strain/Indicator: TA100, Metabolic Activation: HAMSTER, LIVER, S-9, AROCLOR 1254 (10 OR 30%), Method: PREINCUBATION) is “inactive; negative”; the mutagenic call under setting [2] was “inactive; negative”; the mutagenic call (Test System: AMES SALMONELLA TYPHIMURIUM, Strain/Indicator: TA100, Metabolic Activation: RAT, LIVER, S-9, AROCLOR 1254 (10 OR 30%), Method: PREINCUBATION) was “inactive; negative”; the mutagenic call (Test System: AMES SALMONELLA TYPHIMURIUM, Strain/Indicator: TA1535, Metabolic Activation: HAMSTER, LIVER, S-9, AROCLOR 1254 (10 OR 30%), Method: PREINCUBATION) is “inactive; negative”; the mutagenic call under setting [3] was “inactive; negative”; the mutagenic call (Test System: AMES SALMONELLA TYPHIMURIUM, Strain/Indicator: TA1535, Metabolic Activation: RAT, LIVER, S-9, AROCLOR 1254 (10 OR 30%), Method: PREINCUBATION) was “inactive; negative”.

For the compound `O=S(=O)(Oc1ccc(Cl)cc1Cl)c1cccc2cccnc12`, the mutagenic call is “inactive; negative” under setting [4]; “active; positive” (Test System: AMES SALMONELLA TYPHIMURIUM, Strain/Indicator: TA98, Metabolic Activation: RAT, LIVER, S-9, AROCLOR 1254, Method: STANDARD PLATE); “inactive; negative” under setting [5]; “active; positive” (Test System: AMES SALMONELLA TYPHIMURIUM, Strain/Indicator: TA100, Metabolic Activation: RAT, LIVER, S-9, AROCLOR 1254, Method: STANDARD PLATE); “inactive; negative” (Test System: AMES SALMONELLA TYPHIMURIUM, Strain/Indicator: TA1535, Metabolic Activation: NONE, Method: STANDARD PLATE); “inactive; negative” (Test System: AMES SALMONELLA TYPHIMURIUM, Strain/Indicator: TA1535, Metabolic Activation: RAT, LIVER, S-9, AROCLOR 1254, Method: STANDARD PLATE). The mutagenic call is “inactive; negative” (Test System: AMES SALMONELLA TYPHIMURIUM, Strain/Indicator: TA1537, Metabolic Activation: NONE, Method: STANDARD PLATE) and “inactive; negative” (Test System: AMES SALMONELLA TYPHIMURIUM, Strain/Indicator: TA1537, Metabolic Activation: RAT, LIVER, S-9, AROCLOR 1254, Method: STANDARD PLATE).

With `CCc1cccc(NC(=O)c2csc([N+](=O)[O-])c2)c1`, the mutagenic call is “active; positive” under setting [4] and “active; positive” under setting [5].

`[As]`: the mutagenic call was “active; positive (structural changes) ; all subjects showed arsenic-related skin lesions” (End Point: IN VIVO CHROMOSOMAL ABERRATIONS, Test System: BLOOD LYMPHOCYTES, Species: HUMAN, Strain/Sex: MALE, FEMALE, Route: ORAL, DRINKING WATER); “active; positive; exact form of arsenic not given: significant increase in exposed indiv” (End Point: IN VIVO CHROMOSOMAL ABERRATIONS, Test System: PERIPHERAL BLOOD LYMPHOCYTES, Species: HUMAN, Strain/Sex: MALE, FEMALE, Route: DRINKING WATER); “active; positive; environmental exposure from drinking water” (End Point: IN VIVO MICRONUCLEUS, Test System: PERIPHERAL BLOOD LYMPHOCYTES, Species: HUMAN, Strain/Sex: MALE, FEMALE, Route: ORAL, DRINKING WATER); “inactive; negative” (End Point: In vivo micronucleus, Test System: Peripheral lymphocytes, Species: Human, Strain/Sex: Male, Route: Inhalation (Occupational)).

With `Cc1cccc2cc3c(cc12)-c1cccc2cccc-3c12`, where the note is “Test System: AMES SALMONELLA TYPHIMURIUM, Strain/Indicator: TA100, Metabolic Activation: RAT, LIVER, S-9, AROCLOR 1254”, the mutagenic call is “active; positive”.

For `C[CH2][Hg][S]c1ccccc1C(=O)O`, the mutagenic call is “active; positive” (End Point: IN VITRO MICRONUCLEUS, Test System: HAMSTER V79 CELLS, Metabolic Activation: NONE); “inactive; negative” under setting [6]; “inactive; negative” under setting [1]; “inactive; negative” under setting [7]; “inactive; negative” under setting [8]; “inactive; negative” under setting [2]. For the same compound, the mutagenic call is, setting by setting: under setting [9], “inactive; negative”; under setting [10], “inactive; negative”; under setting [3], “inactive; negative”; under setting [11], “inactive; negative”; under setting [12], “inactive; negative”; under setting [13], “inactive; negative”. The mutagenic call under setting [14] was “inactive; negative”.

Take `COc1ccc(CN(CCN(C)C)c2ncccn2)cc1`: the mutagenic call is “inactive; negative” under setting [6]; “inactive; negative” under setting [1]; “inactive; negative” under setting [7]; “inactive; negative” under setting [8]; “inactive; negative” under setting [2]; “inactive; negative” under setting [9]. For the same compound, the mutagenic call runs as follows: under setting [10], “inactive; negative”; under setting [3], “inactive; negative”; under setting [11], “inactive; negative”; under setting [12], “inactive; negative”; under setting [13], “inactive; negative”; under setting [14], “inactive; negative”.

Regarding `COc1cc(O)c2c(=O)c3c(OC)cc4c(c3oc2c1OC)C1CCOC1O4` (centres undefined), the mutagenic call reads like this: (Test System: AMES SALMONELLA TYPHIMURIUM, Strain/Indicator: TA98, Metabolic Activation: RAT, LIVER, S-9, PHENOBARBITAL, Method: STANDARD PLATE) “inactive; negative”; (Test System: AMES SALMONELLA TYPHIMURIUM, Strain/Indicator: TA100, Metabolic Activation: RAT, LIVER, S-9, PHENOBARBITAL, Method: STANDARD PLATE) “inactive; negative”.
